Patent publication US8071531B2, “Flavor and fragrance composition” (Takasgo International Corporation, priority 2006, dated 2011)

Assay: Oral sensory evaluation of an aqueous solution by seven expert panelists
Assay type: in vivo
Description: Oral evaluation of an aqueous solution of (1R,2R,4R)-1-(2-hydroxy-4-methylcyclohexyl)ethanone obtained in Synthesis Example 1 was carried out by seven expert panelists.

## CC(=O)[C@@H]1CC[C@@H](C)C[C@H]1O [(1R,2R,4R)-1-(2-hydroxy-4-methylcyclohexyl)ethanone]
Aqueous solution, oral evaluation
  appearance of refreshing feeling and taste: relatively rapid with clear refreshing feeling without unpleasant taste
At a concentration of 50 ppm in aqueous solution
  Cool and refreshing feeling of the aqueous solution, equivalent concentration of menthol: 10 ppm
